Measurements published in publication PMC12680861, “Comparative analysis of LJ-4378 and tirzepatide in mouse models of obesity and weight regain” (Archives of Pharmacal Research, 2025).

How the values were obtained:
[1] = Plasma stability assay; assay type: in vitro ADME, mouse; conditions: 37 °C, 30 min
Experimental: (§1) The plasma stability of LJ-4378 was evaluated using 100% plasma obtained from human (Biochemed, BC22089NCP, sodium citrate), rat (Innovative, IRT-N, sodium citrate), and mouse (Biochemed, 029-APSC-MP, sodium citrate). 10 Μm of LJ-4378 was added to the plasma, and samples were incubated at 37 °C for 0, 30, and 120 min. At each time point, an aliquot of the plasma was removed and mixed with acetonitrile containing the internal standard, chlorpropamide (TRC, C424800). […] The supernatant was injected into the LC–MS/MS system for quantification of the remaining compound. Analysis was performed using a Nexera XR system (Shimadzu, Japan) with a TSQ Vantage mass spectrometer (Thermo, USA). […] Data acquisition was conducted in MRM mode using Xcalibur software (version 4.4). All experiments were performed in duplicate with a deviation within 15%, and the percentage of compound remaining (% Remaining) at each time point was calculated relative to the non-incubated control sample. For quality control, procaine and enalapril (each at 10 μM) were used as reference compounds and were confirmed to fall within acceptable ranges.

[2] = Steady state tissue partition coefficient after I.V. infusion; assay type: in vivo, SD rats
Experimental: In this study, steady state tissue partition coefficients ( KP,T , i.e., the ratio of tissue to plasma concentrations in steady state) Eq. (1) were determined for LJ-4378 in SD rats. […] Therefore, to ensure a steady state condition, rats received I.V. infusion (i.e., infusion solution, 5% DMSO in normal saline; delivery rate, 10 µL/min; infusion rate, 0.31 µg/µL; total dose of LJ-4378, 0.837 mg per rat) for 270 min (i.e., the time exceeding five times the half-life). Blood samples (~ 150 µL) were collected from the animal at every 10 min from 240 to 270 min for the confirmation of the steady state of the compound. At completion of the last blood collection, rats were sacrificed by decapitation, and four representative tissues (i.e., gonadal adipose, brain, lung, and liver) were harvested. Tissues were then washed four times with ice-Dulbecco’s phosphate-buffered saline (DPBS), weighed, and homogenized in two volumes of DPBS using an Ultra Turrax homogenizer (IKA, Staufen, Germany). Aliquots (50 µL) of plasma and tissue homogenate were mixed with 200 µL ice-cold acetonitrile containing propranolol (100 ng/mL, internal standard). After vortex mixing for 10 min, the mixture was centrifuged at 16,100 × g for 5 min at 4 °C, and 10 µL of the supernatant was injected directly onto the HPLC–MS/MS system. The concentration of LJ-4378 in the biological sample was quantified on an Agilent 1200 HPLC coupled to an API 3200 mass spectrometer with a Phenomenex Luna C18(2) column (3 µm, 100 Å, 50 × 2 mm). Chromatography was performed under isocratic conditions with 80% acetonitrile containing 0.1% formic acid (mobile phase A) and 20% water containing 0.1% formic acid (mobile phase B) at a flow rate of 0.4 mL/min.
(§2) When calculating KP,T for LJ-4378 in […], Eq. (1) was used:1 KP,T=CT,ss/Cp,ss where CT,ss and Cp,ss represented the tissue and plasma concentrations at 270 min after the initiation of LJ-4378 infusion. In addition, under the free-drug hypothesis, the KP,T can be expressed as the ratio of the unbound fractions in plasma ( fup ) and tissue ( fu,T ) [Eq. (2)]. Given similar interspecies values of tissue unbound fraction (Poulin and Theil [2000]), the rat KP,T values were extrapolated to those in mice and humans using the following Eq. (3):2 KP,T=fup/fu,T 3 KP,T,extrapolated=KP,T,rat×fup/fup,rat

[3] = Tissue partition coefficient extrapolated from rat via plasma unbound fractions
Experimental: as §2

[4] = Plasma stability assay; assay type: in vitro ADME, human; conditions: 37 °C, 30 min
Experimental: as §1

[5] = system: plasma protein; experiment: Plasma protein binding, Rapid Equilibrium Dialysis (RED); assay type: in vitro ADME, mouse; conditions: 10 μM, 37 °C, 4 h
Experimental: The plasma protein binding of LJ-4378 was evaluated using the Rapid Equilibrium Dialysis (RED) method with 100% plasma from human (Biochemed, BC22089NCP), rat (Innovative, IRT-N), and mouse (Biochemed, 029-APSC-MP), all treated with sodium citrate as an anticoagulant. The RED device (ThermoFisher Scientific, #89809) and reusable base plate (ThermoFisher Scientific, #89811) were used with an 8 K MWCO membrane. Test compounds were added to plasma at a final concentration of 10 μM and dialyzed against phosphate-buffered saline (PBS, pH 7.4; Hyclone, #SH30256.01) at 37 °C for 4 h. After incubation, equal volumes of plasma and PBS samples were mixed with blank PBS and blank plasma, respectively, followed by the addition of acetonitrile containing chlorpropamide (TRC, C424800) as the internal standard. […] All measurements were performed in duplicate with a deviation of less than 15% between replicates. The free fraction (% Free) was calculated as (concentration in buffer chamber/concentration in plasma chamber) × 100, and the bound fraction (% Bound) was obtained by subtracting % Free from 100. In cases where measurements were unstable, deviations greater than 15% were allowed.

[6] = SD rats (observed), I.V. infusion 270 min

## CCCCC#Cc1nc(N)c2ncn([C@@H]3SC[C@@H](O)[C@H]3O)c2n1 [LJ-4378]
[1]
  % Remaining compound, Mouse plasma 30 min: 98.4%
[2]; [6]
  Steady state tissue partition coefficient (KP,T), Adipose: 0.0843 ± 0.00653
  Steady state tissue partition coefficient (KP,T), Liver: 0.440 ± 0.194
  Steady state tissue partition coefficient (KP,T), Lungs: 0.228 ± 0.0793
[2]; SD rats, steady state
  partitioning in adipose tissue relative to brain: over four-fold higher partitioning
[3]; Humans (extrapolated)
  Steady state tissue partition coefficient (KP,T), Adipose: 0.200
  Steady state tissue partition coefficient (KP,T), Brain: 0.0443
  Steady state tissue partition coefficient (KP,T), Liver: 1.04
  Steady state tissue partition coefficient (KP,T), Lungs: 0.540
[3]; Mice (extrapolated)
  Steady state tissue partition coefficient (KP,T), Adipose: 0.197
  Steady state tissue partition coefficient (KP,T), Brain: 0.0437
  Steady state tissue partition coefficient (KP,T), Liver: 1.03
  Steady state tissue partition coefficient (KP,T), Lungs: 0.533
[4]
  % Remaining compound, Human plasma 30 min: 97.0%
[5]
  Plasma free fraction (% Free), Mouse: 12.7%
